Experiments:
Type in all cases: in vivo
[1] = system: morningglory (Ipomoea coccinea); assay: Test A pre-/postemergence plant response
Text: (§1) Seeds of species selected from barnyardgrass (Echinochloa crus-galli), large crabgrass (Digitaria sanguinalis), giant foxtail (Setaria faberi), blackgrass (Alopecurus myosuroides), canarygrass (Phalaris minor), morningglory (Ipomoea coccinea), pigweed (Amaranthus retroflexus), velvetleaf (Abutilon theophrasti), wheat (Triticum aestivum), and corn (Zea mays) were planted into a blend of loam soil and sand and treated preemergence with a directed soil spray using test chemicals formulated in a non-phytotoxic solvent mixture which included a surfactant. At the same time these species were also treated with postemergence applications of test chemicals formulated in the same manner.
(§2) Plants ranged in height from 2 to 10 cm and were in the one- to two-leaf stage for the postemergence treatment. Treated plants and untreated controls were maintained in a greenhouse for approximately 10 days, after which time all treated plants were compared to untreated controls and visually evaluated for injury. Plant response ratings, summarized in Table A, are based on a 0 to 100 scale where 0 is no effect and 100 is complete control. A dash (-) response means no test results.

[2] = system: giant foxtail (Setaria faberi); assay: Test A pre-/postemergence plant response
Text: as §1, §2

[3] = system: wheat (Triticum aestivum); assay: Test A pre-/postemergence plant response
Text: as §1, §2

[4] = system: velvetleaf (Abutilon theophrasti); assay: Test A pre-/postemergence plant response
Text: as §1, §2

[5] = system: pigweed (Amaranthus retroflexus); assay: Test A pre-/postemergence plant response
Text: as §1, §2

[6] = system: barnyardgrass (Echinochloa crus-galli); assay: Test A pre-/postemergence plant response
Text: as §1, §2

corn (Zea mays) = assay: Test A pre-/postemergence plant response
Text: as §1, §2

[7] = system: large crabgrass (Digitaria sanguinalis); assay: Test A pre-/postemergence plant response
Text: as §1, §2

[8] = system: umbrella sedge (Cyperus difformis); assay: Test B flooded paddy test plant response
Text: (§3) Plant species in the flooded paddy test consisted of rice (Oryza sativa), umbrella sedge (Cyperus difformis), ducksalad (Heteranthera limosa) and barnyardgrass (Echinochloa crus-galli) grown to the 2-leaf stage for testing. At time of treatment, test pots were flooded to 3 cm above the soil surface, treated by application of test compounds directly to the paddy water, and then maintained at that water depth for the duration of the test. Treated plants and controls were maintained in a greenhouse for 13 to 15 days, after which time all species were compared to controls and visually evaluated. Plant response ratings, summarized in Table B, are based on a scale of 0 to 100 where 0 is no effect and 100 is complete control. A dash (-) response means no test result.

[9] = system: ducksalad (Heteranthera limosa); assay: Test B flooded paddy test plant response
Text: as §3

rice (Oryza sativa) = assay: Test B flooded paddy test plant response
Text: as §3

[10] = system: barnyardgrass (Echinochloa crus-galli); assay: Test B flooded paddy test plant response
Text: as §3

[11] = Postemergence, 125 g ai/ha, 0 to 100 scale, 0 no effect, 100 complete control
[12] = Postemergence, 500 g ai/ha, 0 to 100 scale, 0 no effect, 100 complete control
[13] = Preemergence, 125 g ai/ha, 0 to 100 scale (0 no effect, 100 complete control)
[14] = Preemergence, 500 g ai/ha, 0 to 100 scale (0 no effect, 100 complete control)
[15] = Flood (flooded paddy test), 62 g ai/ha, scale 0 to 100, 0 no effect, 100 complete control
[16] = Flood (flooded paddy test), 250 g ai/ha, scale 0 to 100, 0 no effect, 100 complete control
[17] = Flood, 31 g ai/ha, scale 0 to 100
[18] = Flood (flooded paddy test), 125 g ai/ha, scale 0 to 100, 0 no effect, 100 complete control

Structure (SMILES): Cc1cc(-c2ccc(OC(F)(F)F)cc2)nn1-c1c(O)cnn(C)c1=O [Compound 14]
- Plant response rating, Morningglory [1, 11]: 0
- Plant response rating, Morningglory [1, 12]: 0
- Plant response rating, Morningglory [1, 13]: 0
- Plant response rating, Morningglory [1, 14]: 0
- Plant response rating, Foxtail, Giant [2, 11]: 80
- Plant response rating, Foxtail, Giant [2, 12]: 100
- Plant response rating, Foxtail, Giant [2, 13]: 80
- Plant response rating, Foxtail, Giant [2, 14]: 100
- Plant response rating, Wheat [3, 11]: 40
- Plant response rating, Wheat [3, 12]: 70
- Plant response rating, Wheat [3, 13]: 10
- Plant response rating, Wheat [3, 14]: 80
- Plant response rating, Velvetleaf [4, 11]: 0
- Plant response rating, Velvetleaf [4, 12]: 30
- Plant response rating, Velvetleaf [4, 13]: 0
- Plant response rating, Velvetleaf [4, 14]: 20
- Plant response rating, Pigweed [5, 11]: 0
- Plant response rating, Pigweed [5, 12]: 0
- Plant response rating, Pigweed [5, 13]: 0
- Plant response rating, Pigweed [5, 14]: 0
- Plant response rating, Barnyardgrass [6, 11]: 70
- Plant response rating, Barnyardgrass [6, 12]: 100
- Plant response rating, Barnyardgrass [6, 13]: 70
- Plant response rating, Barnyardgrass [6, 14]: 100
- Plant response rating, Corn (corn (Zea mays); [11]): 40
- Plant response rating, Corn (corn (Zea mays); [12]): 80
- Plant response rating, Corn (corn (Zea mays); [13]): 0
- Plant response rating, Corn (corn (Zea mays); [14]): 60
- Plant response rating, Crabgrass, Large [7, 11]: 60
- Plant response rating, Crabgrass, Large [7, 12]: 90
- Plant response rating, Crabgrass, Large [7, 13]: 70
- Plant response rating, Crabgrass, Large [7, 14]: 90
- Plant response rating, Sedge, Umbrella [8, 15]: 60
- Plant response rating, Sedge, Umbrella [8, 16]: 60
- Plant response rating, Sedge, Umbrella [8, 17]: 0
- Plant response rating, Ducksalad [9, 15]: 0
- Plant response rating, Ducksalad [9, 18]: 40
- Plant response rating, Ducksalad [9, 16]: 40
- Plant response rating, Ducksalad [9, 17]: 0
- Plant response rating, Rice (rice (Oryza sativa); [15]): 0
- Plant response rating, Rice (rice (Oryza sativa); [18]): 0
- Plant response rating, Rice (rice (Oryza sativa); [16]): 20
- Plant response rating, Rice (rice (Oryza sativa); [17]): 0
- Plant response rating, Barnyardgrass [10, 15]: 0
- Plant response rating, Barnyardgrass [10, 18]: 20
- Plant response rating, Barnyardgrass [10, 16]: 20
- Plant response rating, Barnyardgrass [10, 17]: 0

Structure (SMILES): Cc1nc(-c2ccc(Cl)cc2)nn1-c1c(O)cnn(C)c1=O [Compound 17]
- Plant response rating, Morningglory [1, 11]: 0
- Plant response rating, Morningglory [1, 12]: 0
- Plant response rating, Morningglory [1, 13]: 0
- Plant response rating, Morningglory [1, 14]: 0
- Plant response rating, Foxtail, Giant [2, 11]: 80
- Plant response rating, Foxtail, Giant [2, 12]: 90
- Plant response rating, Foxtail, Giant [2, 13]: 40
- Plant response rating, Foxtail, Giant [2, 14]: 90
- Plant response rating, Wheat [3, 11]: 0
- Plant response rating, Wheat [3, 12]: 50
- Plant response rating, Wheat [3, 13]: 20
- Plant response rating, Wheat [3, 14]: 50
- Plant response rating, Velvetleaf [4, 11]: 0
- Plant response rating, Velvetleaf [4, 12]: 0
- Plant response rating, Velvetleaf [4, 13]: 0
- Plant response rating, Velvetleaf [4, 14]: 0
- Plant response rating, Pigweed [5, 11]: 0
- Plant response rating, Pigweed [5, 12]: 0
- Plant response rating, Pigweed [5, 13]: 0
- Plant response rating, Pigweed [5, 14]: 0
- Plant response rating, Barnyardgrass [6, 11]: 50
- Plant response rating, Barnyardgrass [6, 12]: 90
- Plant response rating, Barnyardgrass [6, 13]: 40
- Plant response rating, Barnyardgrass [6, 14]: 100
- Plant response rating, Corn (corn (Zea mays); [11]): 0
- Plant response rating, Corn (corn (Zea mays); [12]): 40
- Plant response rating, Corn (corn (Zea mays); [13]): 0
- Plant response rating, Corn (corn (Zea mays); [14]): 40
- Plant response rating, Crabgrass, Large [7, 11]: 40
- Plant response rating, Crabgrass, Large [7, 12]: 80
- Plant response rating, Crabgrass, Large [7, 13]: 0
- Plant response rating, Crabgrass, Large [7, 14]: 70
- Plant response rating, Sedge, Umbrella [8, 15]: 40
- Plant response rating, Sedge, Umbrella [8, 18]: 40
- Plant response rating, Sedge, Umbrella [8, 16]: 70
- Plant response rating, Sedge, Umbrella [8, 17]: 30
- Plant response rating, Ducksalad [9, 15]: 40
- Plant response rating, Ducksalad [9, 18]: 40
- Plant response rating, Ducksalad [9, 16]: 95
- Plant response rating, Ducksalad [9, 17]: 40
- Plant response rating, Rice (rice (Oryza sativa); [15]): 15
- Plant response rating, Rice (rice (Oryza sativa); [18]): 20
- Plant response rating, Rice (rice (Oryza sativa); [16]): 40
- Plant response rating, Rice (rice (Oryza sativa); [17]): 0
- Plant response rating, Barnyardgrass [10, 15]: 0
- Plant response rating, Barnyardgrass [10, 18]: 0
- Plant response rating, Barnyardgrass [10, 16]: 0
- Plant response rating, Barnyardgrass [10, 17]: 0

Structure (SMILES): CCc1cc(-c2ccc(Cl)c(Cl)c2)nn1-c1c(OC(=O)OC(C)C)cnn(C)c1=O [Compound 22]
- Plant response rating, Morningglory [1, 11]: 0
- Plant response rating, Morningglory [1, 12]: 0
- Plant response rating, Morningglory [1, 13]: 0
- Plant response rating, Morningglory [1, 14]: 0
- Plant response rating, Foxtail, Giant [2, 11]: 60
- Plant response rating, Foxtail, Giant [2, 12]: 80
- Plant response rating, Foxtail, Giant [2, 13]: 90
- Plant response rating, Foxtail, Giant [2, 14]: 100
- Plant response rating, Wheat [3, 11]: 20
- Plant response rating, Wheat [3, 12]: 60
- Plant response rating, Wheat [3, 13]: 40
- Plant response rating, Wheat [3, 14]: 70
- Plant response rating, Velvetleaf [4, 11]: 0
- Plant response rating, Velvetleaf [4, 12]: 0
- Plant response rating, Velvetleaf [4, 13]: 0
- Plant response rating, Velvetleaf [4, 14]: 0
- Plant response rating, Pigweed [5, 11]: 0
- Plant response rating, Pigweed [5, 12]: 0
- Plant response rating, Pigweed [5, 13]: 0
- Plant response rating, Pigweed [5, 14]: 0
- Plant response rating, Barnyardgrass [6, 11]: 50
- Plant response rating, Barnyardgrass [6, 12]: 90
- Plant response rating, Barnyardgrass [6, 13]: 30
- Plant response rating, Barnyardgrass [6, 14]: 100
- Plant response rating, Corn (corn (Zea mays); [11]): 20
- Plant response rating, Corn (corn (Zea mays); [12]): 90
- Plant response rating, Corn (corn (Zea mays); [13]): 30
- Plant response rating, Corn (corn (Zea mays); [14]): 70
- Plant response rating, Crabgrass, Large [7, 11]: 10
- Plant response rating, Crabgrass, Large [7, 12]: 80
- Plant response rating, Crabgrass, Large [7, 13]: 50
- Plant response rating, Crabgrass, Large [7, 14]: 90
- Plant response rating, Sedge, Umbrella [8, 15]: 0
- Plant response rating, Sedge, Umbrella [8, 18]: 0
- Plant response rating, Sedge, Umbrella [8, 16]: 0
- Plant response rating, Sedge, Umbrella [8, 17]: 0
- Plant response rating, Ducksalad [9, 15]: 0
- Plant response rating, Ducksalad [9, 18]: 0
- Plant response rating, Ducksalad [9, 16]: 0
- Plant response rating, Ducksalad [9, 17]: 0
- Plant response rating, Rice (rice (Oryza sativa); [15]): 0
- Plant response rating, Rice (rice (Oryza sativa); [18]): 0
- Plant response rating, Rice (rice (Oryza sativa); [16]): 0
- Plant response rating, Rice (rice (Oryza sativa); [17]): 0
- Plant response rating, Barnyardgrass [10, 15]: 0
- Plant response rating, Barnyardgrass [10, 18]: 0
- Plant response rating, Barnyardgrass [10, 16]: 0
- Plant response rating, Barnyardgrass [10, 17]: 0

Structure (SMILES): CSc1cc(-c2ccc(F)cc2)nn1-c1c(O)cnn(C)c1=O [Compound 23]
- Plant response rating, Morningglory [1, 11]: 0
- Plant response rating, Morningglory [1, 12]: 0
- Plant response rating, Morningglory [1, 13]: 0
- Plant response rating, Morningglory [1, 14]: 0
- Plant response rating, Foxtail, Giant [2, 11]: 20
- Plant response rating, Foxtail, Giant [2, 12]: 80
- Plant response rating, Foxtail, Giant [2, 13]: 20
- Plant response rating, Foxtail, Giant [2, 14]: 70
- Plant response rating, Wheat [3, 11]: 0
- Plant response rating, Wheat [3, 12]: 0
- Plant response rating, Wheat [3, 13]: 0
- Plant response rating, Wheat [3, 14]: 0
- Plant response rating, Velvetleaf [4, 11]: 0
- Plant response rating, Velvetleaf [4, 12]: 0
- Plant response rating, Velvetleaf [4, 13]: 0
- Plant response rating, Velvetleaf [4, 14]: 0
- Plant response rating, Pigweed [5, 11]: 0
- Plant response rating, Pigweed [5, 12]: 0
- Plant response rating, Pigweed [5, 13]: 0
- Plant response rating, Pigweed [5, 14]: 0
- Plant response rating, Barnyardgrass [6, 11]: 0
- Plant response rating, Barnyardgrass [6, 12]: 70
- Plant response rating, Barnyardgrass [6, 13]: 0
- Plant response rating, Barnyardgrass [6, 14]: 10
- Plant response rating, Corn (corn (Zea mays); [11]): 0
- Plant response rating, Corn (corn (Zea mays); [12]): 20
- Plant response rating, Corn (corn (Zea mays); [13]): 0
- Plant response rating, Corn (corn (Zea mays); [14]): 20
- Plant response rating, Crabgrass, Large [7, 11]: 0
- Plant response rating, Crabgrass, Large [7, 12]: 20
- Plant response rating, Crabgrass, Large [7, 13]: 0
- Plant response rating, Crabgrass, Large [7, 14]: 0
